Measured values published in patent US6248895A, “Benzofuroxan compound, method of preparation, pharmaceutical composition and method of treatment using the same” (Torrent Pharmaceuticals Ltd., priority 1998, dated 2001).

Experiments:
MABP = test: Drop in mean arterial blood pressure (MABP) after i.v. administration; assay type: in vivo, guinea pig; conditions: 20% fall in MABP
Description: Guinea pigs of either sex, weighing approximately 400-600 g were used for this study. […] Standard limb lead II electrocardiogram was recorded continuously. All the recordings were carried out on a MacLab system (AD Instruments, UK).
Determination of the Ed20 Values for Drop in Mabp
Atleast three animals were used for each dose. […] All doses were injected in a final volume of 1 ml/kg. […] The specificity of the test compound was defined by the selectivity index, which was shown below: [formula]

[1] = tested on: thoracic aorta (albino rabbit, helical strips, endothelium removed); test: In vitro screening of NO donors: relaxation of endothelium-denuded rabbit thoracic aorta strips, before and after GTN-induced tolerance; assay type: cell-based; conditions: relative to GTN; for Mean Relative Potency After Tolerance: after tolerance induced by 440 μM GTN for 90 min
Description: a) In vitro Screening of NO Donors
The method adopted was a modified method of Nishikawa et al (1982). Albino rabbits of either sex were stunned and exsanguinated. Thoracic aorta was quickly removed and cut helically (at an angle of […]) into strips 4-5 mm wide and 25 to 30 mm long, after removal of adventitial connective tissue. The endothelium was rubbed off gently using a cotton swab soaked in Kreb's solution. Two strips were fixed vertically in organ baths containing 20 ml. Kreb's solution maintained at 37° C. and bubbled with oxygen. A resting tension of 4 g was applied and the preparation was allowed to equilibrate for 30 min. Each preparation was exposed to two primer doses of KCl (30 mM). After the contraction reached a maximum, the bath was drained off and replaced with fresh Kreb's solution. Half an hour later, cumulative dose response curve for the test compound was taken on one tissue (test) and for glyceryl trinitrate (GTN) in the other (standard). The dose range used was from 10^-9 M to 10^-3 M with a contact period of 4 min. for each dose.
Tolerance was induced in both the tissues by adding 440 μM of GTN for 90 minutes. During this period the bath solution was changed every 30 min. and 440 μM of GTN was replaced. Later both the tissues were washed thoroughly and the dose response curve (DRC) for both the test and the standard were repeated. The percentage relaxation with individual doses was calculated by taking the maximum relaxations to 10^-4 M papaverine as 100% relaxation. A graph was plotted by taking the percentage relaxation vs the log (M) concentration of the compounds.

[2] = tested on: vasopressin induced T-wave elevation; test: Anti-anginal effect: suppression of vasopressin induced T-wave elevation in anesthetized guinea pigs; assay type: in vivo, guinea pig; conditions: for Selectivity Index A/B (C): ED20 for fall in B.P. (A) / ED50 for T-wave inhibition (B); for Dose required for 50% inhibition of T-wave (ED50) (B): i.v.
Source text: b) In vivo Pharmacological Screening
A modified method of Benedini et al (1995) was adopted for studying the anti-anginal effect of the chosen compounds. Guinea pigs of either sex, weighing approximately 400-600 g were used for this study. Animals were anesthetized with urethane (1.25 g/kg, i.p.) and jugular vein was cannulated for intravenous administration of drugs/vehicle. Mean arterial blood pressure (MABP) was monitored by a cannula inserted into the right carotid artery and connected to a pressure transducer. Standard limb lead II electrocardiogram was recorded continuously. All the recordings were carried out on a MacLab system (AD Instruments, UK).
The ability of the test compounds to suppress the vasopressin induced T-wave elevation was used as the model for studying the anti-anginal effects of the compounds. Guinea pigs were divided into two groups for the purpose of this study, i) control group (pretreated with the vehicle for the compound) and ii) drug treated group.
In this group of animals the solvent used for dissolving the test compound was administered intravenously in a volume of 1 ml/kg. The basal T-wave heights, heart rates and MABP and changes after vehicle administration were noted. Thirty seconds later 1 I.U./ml/kg of vasopressin was administered intravenously. The T-wave heights, heart rates and MABP and their changes after vasopressin administration were also noted. The T-wave elevation (after vasopressin administration), maximum rise in MABP, and changes in heart rate were calculated from the above data and expressed as mean±standard deviation.
The effects of the test compound in suppressing the T-wave elevation caused by vasopressin were evaluated with atleast three dose levels. Groups of 6 guinea pigs were used for each dose. The test compound was injected 30 seconds prior to vasopressin administration. Changes in MABP, heart rate and T-waves were recorded as described for the control group. The percentage inhibition of vasopressin induced T-wave elevation was calculated for each dose taking the T-wave height estimated in control group as 100%. From the dose vs percent inhibition relationship, the dose required for 50% inhibition (ED50) for the T-wave elevation was estimated.
In a separate group of animals the drop in MABP after administration of the test compound (dose range of 0.1-1000 μg/kg, i.v.) was studied. Atleast three animals were used for each dose. Care was taken so that the doses were given only after the MABP had stabilized from the effects of the previous dose. All doses were injected in a final volume of 1 ml/kg. […] From this graph the dose required to produce a 20% fall in MABP (ED20) was calculated. The specificity of the test compound was defined by the selectivity index, which was shown below: [formula]

[3] = conventional nitrates like GTN; cited from earlier work
[4] = 30 seconds prior to vasopressin 1 I.U./ml/kg

Compound: 5(6)-(2-nicotinamide ethyloxycarbonyl) benzofuroxan hydrochloride [Compound 1]
- Dose needed for 20% fall in B.P. (ED20) (A) (MABP): 0.45802 mg/kg
- Mean Relative Potency After Tolerance [1]: 8.4
- Mean Relative Potency Before Tolerance [1]: 0.2
- Selectivity Index A/B (C) [2]: 0.517
- selectivity index as compared to GTN (in words) [2]: high selectivity index as compared to GTN
- Dose required for 50% inhibition of T-wave (ED50) (B) [2, 4]: 0.88642 mg/kg

Compound: CC1(C)OCC(COC(=O)c2ccc3c(c2)no[n+]3[O-])O1 (racemic) [Compound 10, 5(6)-((±)-2,2-dimethyl-1,3-dioxolane-4-methyloxycarbonyl) benzofuroxan]
- Dose needed for 20% fall in B.P. (ED20) (A) (MABP): 0.286 mg/kg
- Mean Relative Potency After Tolerance [1]: 10.13
- Mean Relative Potency Before Tolerance [1]: 0.39
- Selectivity Index A/B (C) [2]: 0.58
- selectivity index as compared to GTN (in words) [2]: high selectivity index as compared to GTN
- Dose required for 50% inhibition of T-wave (ED50) (B) [2, 4]: 0.492 mg/kg

Compound: O=C(NCCOC(=O)c1ccc2c(c1)no[n+]2[O-])c1ccncc1 [Compound 2, 5(6)-(2-isonicotinamideethyloxycarbonyl)benzofuroxan]
- Mean Relative Potency After Tolerance [1]: 6.94
- Mean Relative Potency Before Tolerance [1]: 0.06

Compound: O=C(OCCN1CCCC1=O)c1ccc2c(c1)no[n+]2[O-] [Compound 3, 5(6)-(2-pyrolidinone ethyloxycarbonyl) benzofuroxan]
- Dose needed for 20% fall in B.P. (ED20) (A) (MABP): 0.13952 mg/kg
- Mean Relative Potency After Tolerance [1]: 25
- Mean Relative Potency Before Tolerance [1]: 0.11
- Selectivity Index A/B (C) [2]: 0.152
- Dose required for 50% inhibition of T-wave (ED50) (B) [2, 4]: 0.67561 mg/kg

Compound: CC(O)COC(=O)c1ccc2c(c1)no[n+]2[O-] (stereo not drawn) [Compound 4, 5(6)-(2-hydroxypropyloxycarbonyl) benzofuroxan]
- Mean Relative Potency After Tolerance [1]: 11.22
- Mean Relative Potency Before Tolerance [1]: 0.28

Compound: O=C(OCCN1CCOCC1)c1ccc2c(c1)no[n+]2[O-] [Compound 5, 5(6)-(2-morpholinoethyloxycarbonyl)benzofuroxan]
- Mean Relative Potency After Tolerance [1]: 4.12
- Mean Relative Potency Before Tolerance [1]: 0.18

Compound: COCCOC(=O)c1ccc2c(c1)no[n+]2[O-] [Compound 6, 5(6)-(2-methyloxyethyloxycarbonyl) benzofuroxan]
- Dose needed for 20% fall in B.P. (ED20) (A) (MABP): 0.22634 mg/kg
- Mean Relative Potency After Tolerance [1]: 17.02
- Mean Relative Potency Before Tolerance [1]: 0.97
- Selectivity Index A/B (C) [2]: 0.67
- selectivity index as compared to GTN (in words) [2]: high selectivity index as compared to GTN
- Dose required for 50% inhibition of T-wave (ED50) (B) [2, 4]: 0.3379 mg/kg

Compound: O=C(OCC(O)CO)c1ccc2c(c1)no[n+]2[O-] (stereo not drawn) [Compound 7, 5(6)-(2,3-dihydroxypropyloxycarbonyl) benzofuroxan]
- Mean Relative Potency After Tolerance [1]: 3.49
- Mean Relative Potency Before Tolerance [1]: 0.17

Compound: CCOCCOC(=O)c1ccc2c(c1)no[n+]2[O-] [Compound 8, 5(6)-(2-ethoxyethyloxycarbonyl) benzofuroxan]
- Mean Relative Potency After Tolerance [1]: 11.9
- Mean Relative Potency Before Tolerance [1]: 0.2

Compound: O=C(OCc1cccnc1)c1ccc2c(c1)no[n+]2[O-] [Compound 9, 5(6)-(3-pyridinemethoxycarbonyl) benzofuroxan]
- Dose needed for 20% fall in B.P. (ED20) (A) (MABP): 0.22716 mg/kg
- Mean Relative Potency After Tolerance [1]: 8.05
- Mean Relative Potency Before Tolerance [1]: 0.53
- Selectivity Index A/B (C) [2]: 0.61
- selectivity index as compared to GTN (in words) [2]: high selectivity index as compared to GTN
- Dose required for 50% inhibition of T-wave (ED50) (B) [2, 4]: 0.37285 mg/kg

Compound: O=C(OC1COC2C(O[N+](=O)[O-])COC12)c1ccc2c(c1)no[n+]2[O-] (stereo not drawn) [Compound 11, 5(6)-(isosorbide mononitrateoxy carbonyl) benzofuroxan]
- Mean Relative Potency After Tolerance [1]: 7
- Mean Relative Potency Before Tolerance [1]: 0.25

Compound: O=[N+]([O-])OCC(CO[N+](=O)[O-])O[N+](=O)[O-] [GTN, glyceryl trinitrate, reference compound]
- ED20 (MABP; Cavia porcellus, iv, read-out: Dose needed for 20% fall in B.P. (ED20) (A)): 0.00822 mg/kg
- side effects as a manifestation of hypotensive effect [3]: tachycardia, retrosternal discomfort, palpitations, collapse, syncope and postural hypotension
- ED50 ([2]; Cavia porcellus, iv, 30 seconds prior to vasopressin 1 I.U./ml/kg, read-out: Dose required for 50% inhibition of T-wave (ED50) (B)): 0.474 mg/kg
- Selectivity Index A/B (C) [2]: ~0.017
